Measurements taken from patent US11351168B1 (Celgene CAR LLC, priority 2008, dated 2022).

system: BTK signaling in Ramos cells; test: BTK Ramos cellular assay (phosphorylation of BTK substrate PLCγ2); assay type: cell-based, human; conditions: Homo sapiens, 1 hour compound, anti-IgM stimulation, read-out: BTK Inhibition (Ramos cellular)
Procedure: Compounds I-2, I-4, and I-7 were assayed in Ramos human Burkitt lymphoma cells. Ramos cells were grown in suspension in T225 flasks, spun down, resuspended in 50 ml serum-free media and incubated for 1 hour. Compound was added to Ramos cells in serum free media to a final concentration of 1, 0.1, 0.01, or 0.001 μM. Ramos cells were incubated with compound for 1 hour, washed again and resuspended in 100 ul serum-free media. Cells were then stimulated with 1 μg of goat F(ab′)2 Anti-Human IgM and incubated on ice for 10 minutes to activate B cell receptor signaling pathways. After 10 minutes, the cells were washed once with PBS and then lysed on ice with Invitrogen Cell Extraction buffer. 16 μg total protein from lysates were loaded on gel and blots were probed for phosphorylation of the BTK substrate PLCγ2.

Compound	IC50 [nM]
C=CC(=O)Nc1ccc(C)c(Nc2ncc(C)c(Nc3cccc(C)c3)n2)c1 [Compound I-8, N-(4-methyl-3-(5-methyl-4-(m-tolylamino)pyrimidin-2-ylamino)phenyl)acrylamide]	100 to 1000
C=CC(=O)Nc1cccc(Nc2nc(Nc3ccc(OCCCS(C)(=O)=O)c(F)c3)ncc2F)c1 [Compound I-318, N-(3-(5-fluoro-2-(3-fluoro-4-(3-(methylsulfonyl)propoxy)phenylamino)pyrimidin-4-ylamino)phenyl)acrylamide]	< 10
C=CC(=O)Nc1cccc(Nc2nc(Nc3ccc(OCCOC)nc3)ncc2F)c1 [Compound I-103, N-(3-(5-fluoro-2-(6-(2-methoxyethoxy)pyridine-3-ylamino)pyrimidin-4-ylamino)phenyl)acrylamide]	< 10
C=CC(=O)N1CCC[C@@H](Oc2nc(Nc3cccc(OC)c3)ncc2F)C1 [Compound I-190, (R)-1-(3-(5-fluoro-2-(3-methoxyphenylamino)pyrimidin-4-yloxy)piperidin-1-yl)prop-2-en-1-one]	10 to 100
C=CC(=O)Nc1cccc(Nc2nc(Nc3ccc(N(C)CCOC)nc3)ncc2F)c1 [Compound I-77, N-(3-(5-fluoro-2-(6-((2-methoxyethyl)(methyl)amino)pyridin-3-ylamino)pyrimidin-4-ylamino)phenyl)acrylamide]	< 10
C=CC(=O)Nc1cccc(Nc2nc(Nc3ccc4[nH]ncc4c3)ncc2F)c1 [Compound I-156]	< 10
C=CC(=O)N1CCCC(Nc2nc(Nc3ccccc3)ncc2C)C1 (centres unmarked) [Compound I-27]	10 to 100
C=CC(=O)N1CCOc2ccc(Nc3nc(Nc4ccc(OC)nc4)ncc3F)cc21 [Compound I-194, 1-(6-(5-fluoro-2-(6-methoxypyridin-3-ylamino)pyrimidin-4-ylamino)-2H-benzo[b][1,4]oxazin-4(3H)-yl)prop-2-en-1-one]	< 10
C=CC(=O)N1CCOc2ccc(Nc3nc(Nc4ccc(N5CCOCC5)nc4)ncc3C(C)=O)cc21 [Compound I-168, 1-{6-[5-Acetyl-2-(6-morpholin-4-yl-pyridin-3-ylamino)-pyrimidin-4-ylamino]-2,3-dihydro-benzo[1,4]oxazin-4-yl}-propenone]	10 to 100
C=CC(=O)Nc1ccc(Nc2nc(Nc3ccccc3)ncc2C)cc1 [Compound I-39, N-(4-(5-methyl-2-(phenylamino)pyrimidin-4-ylamino)phenyl) acrylamide]	10 to 100
C=CC(=O)N1CCOc2ccc(Nc3nc(Nc4ccc5c(c4)CC(=O)N5)ncc3C(C)=O)cc21 [Compound I-129, 5-[5-Acetyl-4-(4-acryloyl-3,4-dihydro-2H-benzo[1,4]oxazin-6-ylamino)-pyrimidin-2-ylamino]-1,3-dihydro-indol-2-one]	< 10
[2H]C([2H])([2H])Oc1ccc(Nc2ncc(F)c(Nc3cccc(NC(=O)C=C)c3)n2)cn1 [Compound I-95, N-(3-(5-fluoro-2-(6-(trideutereomethoxy)pyridine-3-ylamino)pyrimidin-4-ylamino)phenyl)acrylamide]	< 10
C=CC(=O)Nc1cccc(Nc2nc(Nc3ccc(OC)nc3)ncc2C(N)=O)c1 [Compound I-209, 4-(3-acrylamidophenylamino)-2-(6-methoxypyridin-3-ylamino)pyrimidine-5-carboxamide]	10 to 100
C=CC(=O)Nc1cccc(Oc2nc(Nc3cccc(OC)c3)ncc2C(N)=O)c1 [Compound I-178, 4-(3-acrylamidophenoxy)-2-(3-methoxyphenylamino)pyrimidine-5-carboxylic acid amide]	10 to 100
C=CC(=O)Nc1cccc(Oc2nc(Nc3ccc(OC)nc3)ncc2F)c1 [Compound I-217]	< 10
C=CC(=O)N1CCC[C@@H](Nc2nc(Nc3cccc(OCCN4CCOCC4)c3)ncc2F)C1 [Compound I-135, (R)-1-(3-(5-fluoro-2-(3-(2-morpholinoethoxy)phenylamino)pyrimidin-4-ylamino)piperidin-1-yl)prop-2-en-1-one]	10 to 100
C=CC(=O)Nc1cccc(Nc2nc(Nc3ccccc3)ncc2C#N)c1 [Compound I-157, N-(3-(5-cyano-2-(phenylamino)pyrimidin-4-ylamino)phenyl)acrylamide]	< 10
C=CC(=O)Nc1cccc(Nc2nc(Nc3cccc(S(N)(=O)=O)c3)ncc2C)c1 [Compound I-33, N-(3-(5-methyl-2-(3-sulfamoylphenylamino)pyrimidin-4-ylamino)phenyl)acrylamide]	< 10
C=CC(=O)Nc1cccc(Nc2nc(Nc3cc(OC)c(OC)c(OC)c3)ncc2F)c1 [Compound I-133, 4-(3-acrylamidophenylamino)-5-fluoro-2-(3,4,5-trimethoxyphenylamino)-pyrimidine]	10 to 100

Compound	IC50 [nM]
C=CC(=O)Nc1cc(Nc2nc(Nc3ccc(OCCOC)cc3)ncc2F)ccc1F [Compound I-87, N-(2-fluoro-5-(5-fluoro-2-(4-(2-methoxyethoxy)phenylamino)pyrimidin-4-ylamino)phenyl)acrylamide]	< 10
C=CC(=O)Nc1cccc(Nc2nc(Nc3ccc(Cl)c(OCCOC)c3)ncc2F)c1 [Compound I-321, N-(3-(2-(4-chloro-3-(2-methoxyethoxy)phenylamino)-5-fluoropyrimidin-4-ylamino)phenyl)acrylamide]	< 10
C=CC(=O)Nc1cccc(Nc2nc(Nc3ccc(OC)nc3)ncc2OC)c1 [Compound I-192, N-(3-(5-methoxy-2-(6-methoxypyridin-3-ylamino)pyrimidin-4-ylamino)phenyl)acrylamide]	10 to 100
C=CC(=O)N(C)Cc1ccc(Nc2nc(Nc3ccc(OC)nc3)ncc2F)cc1 [Compound I-114, N-(4-(5-fluoro-2-(6-methoxypyridin-3-ylamino)pyrimidin-4-ylamino)benzyl)-N-methylacrylamide]	10 to 100
C=C(C)C(=O)c1ccc(Nc2nc(Nc3ccccc3)ncc2F)cc1 [Compound I-185, 1-(4-(5-fluoro-2-(phenylamino)pyrimidin-4-ylamino)phenyl)-2-methylprop-2-en-1-one]	100 to 1000
C=CC(=O)Nc1cccc(Nc2nc(Nc3ccc(OCC(C)(C)O)c(F)c3)ncc2F)c1 [Compound I-315, N-(3-(5-fluoro-2-(3-fluoro-4-(2-hydroxy-2-methylpropoxy)phenylamino)pyrimidin-4-ylamino)phenyl)acrylamide]	< 10
C=CC(=O)Nc1cccc(Nc2nc(Nc3ccc4c(c3)N(C(=O)C(F)(F)F)CCO4)ncc2F)c1 [Compound I-143, N-(3-(2-(4-trifluoroacetyl-2,3-dihydrobenzo[1,4]oxazin-6-yl)amino-5-fluoropyrimidin-4-ylamino)phenyl)acrylamide]	< 10
C=CC(=O)Nc1cccc(Nc2nc(Nc3ccc4c(cnn4C(=O)OC(C)(C)C)c3)ncc2F)c1 [Compound I-151]	< 10
C=CC(=O)Nc1cccc(Nc2nc(Nc3ccc(OCCOC)cc3)ncc2C(C)=O)c1 [Compound I-124, N-(3-{5-Acetyl-2-[4-(2-methoxy-ethoxy)-phenylamino]-pyrimidin-4-ylamino}-phenyl)-acrylamide]	< 10
C=CC(=O)Nc1cccc(Nc2nc(Nc3cccc(OCCCS(C)(=O)=O)c3)ncc2F)c1 [Compound I-138, 4-(3-acrylamidophenylamino)-5-fluoro-2-(3-(3-(methylsulfonyl)propoxy)phenylamino)-pyrimidine]	< 10
C=CC(=O)Nc1cccc(Oc2nc(Nc3ccc(OC)nc3)ncc2C(=O)NC2CC2)c1 [Compound I-176, 4-(3-acrylamidophenoxy)-2-(6-methoxypyridin-3-ylamino)-pyrimidine-5-carboxylic acid cyclopropylamide]	100 to 1000
C=CC(=O)Nc1cccc(Nc2nc(Nc3ccc(OCCCNC(=O)OC(C)(C)C)cc3)ncc2F)c1 [Compound I-198, tert-butyl 3-(4-(4-(3-acrylamidophenylamino)-5-fluoropyrimidin-2-ylamino)phenoxy)propylcarbamate]	< 10
C=CC(=O)Nc1cccc(Nc2nc(Nc3ccc(OC(C)C)nc3)ncc2F)c1 [Compound I-172, N-(3-(5-fluoro-2-(6-isopropoxypyridin-3-ylamino)pyrimidin-4-ylamino)phenyl)acrylamide]	< 10
C=CC(=O)Nc1cccc(Nc2nc(Nc3ccc4c(c3)N(S(C)(=O)=O)CCO4)ncc2F)c1 [Compound I-140, N-(3-(2-(4-methylsulfonyl-2,3-dihydrobenzo[1,4]oxazin-6-yl)amino-5-fluoropyrimidin-4-ylamino)phenyl)acrylamide]	10 to 100
C=CC(=O)Nc1cccc(Nc2nc(Nc3cccc(S(N)(=O)=O)c3)ncc2F)c1 [Compound I-160, N-(3-(5-fluoro-2-(3-sulfamoylphenylamino)pyrimidin-4-ylamino)phenyl)acrylamide]	10 to 100
C=CC(=O)Nc1cccc(Nc2nc(Nc3ccc(OCCCS(C)(=O)=O)nc3)ncc2F)c1 [Compound I-80, N-(3-(5-fluoro-2-(6-(3-(methylsulfonyl)propoxy)pyridin-3-ylamino)pyrimidin-4-ylamino)phenyl)acrylamide]	< 10
C=CC(=O)Nc1cccc(Nc2nc(Nc3ccc(O[C@@H]4CCOC4)c(F)c3)ncc2F)c1 [Compound I-316, (R)—N-(3-(5-fluoro-2-(3-fluoro-4-(tetrahydrofuran-3-yloxy)phenylamino)pyrimidin-4-ylamino)phenyl)acrylamide]	< 10
C=CC(=O)Nc1cccc(Nc2nc(Nc3ccc4c(c3)NCCO4)ncc2F)c1 [Compound I-174]	< 10
C=CC(=O)N1CCC(Nc2nc(Nc3cccc(OC)c3)ncc2F)C1 (centres unmarked) [Compound I-201, 1-(3-(5-fluoro-2-(3-methoxyphenylamino)pyrimidin-4-ylamino)pyrrolidin-1-yl)prop-2-en-1-one]	100 to 1000
